Data published in patent publication US20160021873A1, “STEM CELL PRESERVATION MEDIUM, STEM CELL PRESERVATION METHOD, AND STEM CELL PRESERVATION SYSTEM” (KYOKUTO PHARMACEUTICAL INDUSTRIAL CO., LTD., priority 2012, published 2016).

Tested on: human iPS cells
Experiment: survival rate on ROCK inhibitor (+) versus (-) cultivation after thawing
Format: cell-based
Conditions: 10 μM Y-27632 for two days then three days without; rapid thawing with warm culture medium; ROCK inhibitor (-) cultivation about 30%
Experimental: Cultivation and freezing in the stem cell preservation method were carried out by procedures similar to those of Embodiment 2. Regarding thawing, after a warm culture medium was used to conduct rapid thawing, difference of survival rate was measured depending on whether the ROCK inhibitor 10 μM Y-27632 was added or not. Where the inhibitor was added, in the presence of Y-27632, cultivation was performed for two days, thereafter, cultivation was performed additionally for three days in a culture medium free of Y-27632. On the other hand, where no inhibitor was added, cultivation was performed for five days in a normal culture medium. On both the cultivation, a survival rate was measured according to the method described in Embodiment 2.

`C[C@@H](N)[C@H]1CC[C@H](C(=O)Nc2ccncc2)CC1` [ROCK inhibitor, Y-27632] was tested. Which survival rate did it give?
Its survival rate is “about 120%”.
